Measured values taken from the NIST ThermoML archive (doi:10.1016/j.jct.2011.08.016).

Experiment: xn = mol fraction of the nth substance listed
Conditions: Liquid, Vibrating tube method

CCCCCCCCCC [decane] + CCCCCCCC
Conditions | mass density [kg/m3]
313.14 K, 1000 kPa, x2 = 0.0616 | 714.37
313.14 K, 2000 kPa, x2 = 0.0616 | 715.15
313.14 K, 3000 kPa, x2 = 0.0616 | 716
313.14 K, 4000 kPa, x2 = 0.0616 | 716.89
313.14 K, 5000 kPa, x2 = 0.0616 | 717.71
313.14 K, 6000 kPa, x2 = 0.0616 | 718.51
313.14 K, 7000 kPa, x2 = 0.0616 | 719.36
313.14 K, 8000 kPa, x2 = 0.0616 | 720.16
313.14 K, 9000 kPa, x2 = 0.0616 | 720.97
313.14 K, 10000 kPa, x2 = 0.0616 | 721.75
313.14 K, 10990 kPa, x2 = 0.0616 | 722.52
313.14 K, 12000 kPa, x2 = 0.0616 | 723.27
313.14 K, 13000 kPa, x2 = 0.0616 | 724.05
313.14 K, 14000 kPa, x2 = 0.0616 | 724.81
313.14 K, 15000 kPa, x2 = 0.0616 | 725.5
313.14 K, 16000 kPa, x2 = 0.0616 | 726.26
313.14 K, 17000 kPa, x2 = 0.0616 | 726.99
313.14 K, 18000 kPa, x2 = 0.0616 | 727.69
313.14 K, 19000 kPa, x2 = 0.0616 | 728.37
313.14 K, 20000 kPa, x2 = 0.0616 | 729.06
313.14 K, 21000 kPa, x2 = 0.0616 | 729.73
313.14 K, 22000 kPa, x2 = 0.0616 | 730.38
313.14 K, 23000 kPa, x2 = 0.0616 | 731.03
313.14 K, 24000 kPa, x2 = 0.0616 | 731.6
313.14 K, 25000 kPa, x2 = 0.0616 | 732.22
313.17 K, 1000 kPa, x2 = 0.2801 | 709.26
313.17 K, 1000 kPa, x2 = 0.9623 | 688.85
313.17 K, 2000 kPa, x2 = 0.2801 | 710.07
313.17 K, 2000 kPa, x2 = 0.9623 | 689.77
313.17 K, 3000 kPa, x2 = 0.2801 | 710.9
313.17 K, 3000 kPa, x2 = 0.9623 | 690.64
313.17 K, 4000 kPa, x2 = 0.2801 | 711.79
313.17 K, 4000 kPa, x2 = 0.9623 | 691.53
313.17 K, 5000 kPa, x2 = 0.2801 | 712.65
313.17 K, 5000 kPa, x2 = 0.9623 | 692.37
313.17 K, 6000 kPa, x2 = 0.2801 | 713.47
313.17 K, 6000 kPa, x2 = 0.9623 | 693.31
313.17 K, 7000 kPa, x2 = 0.2801 | 714.32
313.17 K, 7000 kPa, x2 = 0.9623 | 694.24
313.17 K, 8000 kPa, x2 = 0.2801 | 715.17
313.17 K, 8000 kPa, x2 = 0.9623 | 695.11
313.17 K, 9000 kPa, x2 = 0.2801 | 715.99
313.17 K, 9000 kPa, x2 = 0.9623 | 696.04
313.17 K, 10000 kPa, x2 = 0.2801 | 716.81
313.17 K, 10000 kPa, x2 = 0.9623 | 696.93
313.17 K, 10990 kPa, x2 = 0.2801 | 717.63
313.17 K, 10990 kPa, x2 = 0.9623 | 697.85
313.17 K, 12000 kPa, x2 = 0.2801 | 718.42
313.17 K, 12000 kPa, x2 = 0.9623 | 698.72
313.17 K, 13000 kPa, x2 = 0.2801 | 719.2
313.17 K, 13000 kPa, x2 = 0.9623 | 699.57
313.17 K, 14000 kPa, x2 = 0.2801 | 719.98
313.17 K, 14000 kPa, x2 = 0.9623 | 700.45
313.17 K, 15000 kPa, x2 = 0.2801 | 720.74
313.17 K, 15000 kPa, x2 = 0.9623 | 701.33
313.17 K, 16000 kPa, x2 = 0.2801 | 721.5
313.17 K, 16000 kPa, x2 = 0.9623 | 702.18
313.17 K, 17000 kPa, x2 = 0.2801 | 722.23
313.17 K, 17000 kPa, x2 = 0.9623 | 703
313.17 K, 18000 kPa, x2 = 0.2801 | 723
313.17 K, 18000 kPa, x2 = 0.9623 | 703.81
313.17 K, 19000 kPa, x2 = 0.2801 | 723.67
313.17 K, 19000 kPa, x2 = 0.9623 | 704.6
313.17 K, 20000 kPa, x2 = 0.2801 | 724.35
313.17 K, 20000 kPa, x2 = 0.9623 | 705.32
313.17 K, 21000 kPa, x2 = 0.2801 | 725.02
313.17 K, 21000 kPa, x2 = 0.9623 | 706.06
313.17 K, 22000 kPa, x2 = 0.2801 | 725.7
313.17 K, 22000 kPa, x2 = 0.9623 | 706.8
313.17 K, 23000 kPa, x2 = 0.2801 | 726.3
313.17 K, 23000 kPa, x2 = 0.9623 | 707.48
313.17 K, 24000 kPa, x2 = 0.2801 | 726.9
313.17 K, 24000 kPa, x2 = 0.9623 | 708.16
313.17 K, 25000 kPa, x2 = 0.2801 | 727.55
313.17 K, 25000 kPa, x2 = 0.9623 | 708.78
313.19 K, 1000 kPa, x2 = 0.5314 | 702.8
313.19 K, 1000 kPa, x2 = 0.7736 | 695.32
313.19 K, 2000 kPa, x2 = 0.5314 | 703.69
313.19 K, 2000 kPa, x2 = 0.7736 | 696.27
313.19 K, 3000 kPa, x2 = 0.5314 | 704.53
313.19 K, 3000 kPa, x2 = 0.7736 | 697.14
313.19 K, 4000 kPa, x2 = 0.5314 | 705.35
313.19 K, 4000 kPa, x2 = 0.7736 | 698.01
313.19 K, 5000 kPa, x2 = 0.5314 | 706.16
313.19 K, 5000 kPa, x2 = 0.7736 | 698.89
313.19 K, 6000 kPa, x2 = 0.5314 | 707.05
313.19 K, 6000 kPa, x2 = 0.7736 | 699.8
313.19 K, 7000 kPa, x2 = 0.5314 | 707.93
313.19 K, 7000 kPa, x2 = 0.7736 | 700.67
313.19 K, 8000 kPa, x2 = 0.5314 | 708.77
313.19 K, 8000 kPa, x2 = 0.7736 | 701.55
313.19 K, 9000 kPa, x2 = 0.5314 | 709.59
313.19 K, 9000 kPa, x2 = 0.7736 | 702.44
